Molecular target: Secreted effector protein (Yersinia pestis, UniProt O68720)
Experiment: Inhibition of Yersinia pestis YopH after 15 mins by pNPP hydrolysis assay

Secreted effector protein, sequence (O68720 whole entry): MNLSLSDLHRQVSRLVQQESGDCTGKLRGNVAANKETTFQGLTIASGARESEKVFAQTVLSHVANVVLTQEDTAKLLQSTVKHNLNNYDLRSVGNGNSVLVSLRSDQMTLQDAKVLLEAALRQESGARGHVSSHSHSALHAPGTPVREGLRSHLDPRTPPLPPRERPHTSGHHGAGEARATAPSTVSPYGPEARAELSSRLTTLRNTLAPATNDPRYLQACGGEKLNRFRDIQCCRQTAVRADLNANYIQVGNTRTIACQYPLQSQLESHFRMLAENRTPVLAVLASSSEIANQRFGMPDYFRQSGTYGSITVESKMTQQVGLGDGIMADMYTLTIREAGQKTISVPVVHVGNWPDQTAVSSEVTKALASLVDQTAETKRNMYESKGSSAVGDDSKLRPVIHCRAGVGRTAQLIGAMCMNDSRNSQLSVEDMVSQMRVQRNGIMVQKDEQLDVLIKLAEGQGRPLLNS

O=C(O)c1cc(/C=N/OCCCCCCCCCCO/N=C/c2ccc(OCc3ccccc3)cc2)ccc1O
IC50: 2.4 µM
